Laboratory results: patent publication US8969343B2, “Histone demethylase inhibitors” (priority 2012, dated 2015)
Where a name gives a salt, the structure may show the parent alone. Read-outs that look alike come from different tables or passages of the source.

Experiments:
[1] = molecular target: T1, Jarid1A (Homo sapiens, UniProt P29375); test: Jarid1A in vitro enzyme inhibition assay (TR-FRET); type: biochemical
T1 construct: purchased BPS Bioscience 50110
T1 sequence (P29375 1-1090): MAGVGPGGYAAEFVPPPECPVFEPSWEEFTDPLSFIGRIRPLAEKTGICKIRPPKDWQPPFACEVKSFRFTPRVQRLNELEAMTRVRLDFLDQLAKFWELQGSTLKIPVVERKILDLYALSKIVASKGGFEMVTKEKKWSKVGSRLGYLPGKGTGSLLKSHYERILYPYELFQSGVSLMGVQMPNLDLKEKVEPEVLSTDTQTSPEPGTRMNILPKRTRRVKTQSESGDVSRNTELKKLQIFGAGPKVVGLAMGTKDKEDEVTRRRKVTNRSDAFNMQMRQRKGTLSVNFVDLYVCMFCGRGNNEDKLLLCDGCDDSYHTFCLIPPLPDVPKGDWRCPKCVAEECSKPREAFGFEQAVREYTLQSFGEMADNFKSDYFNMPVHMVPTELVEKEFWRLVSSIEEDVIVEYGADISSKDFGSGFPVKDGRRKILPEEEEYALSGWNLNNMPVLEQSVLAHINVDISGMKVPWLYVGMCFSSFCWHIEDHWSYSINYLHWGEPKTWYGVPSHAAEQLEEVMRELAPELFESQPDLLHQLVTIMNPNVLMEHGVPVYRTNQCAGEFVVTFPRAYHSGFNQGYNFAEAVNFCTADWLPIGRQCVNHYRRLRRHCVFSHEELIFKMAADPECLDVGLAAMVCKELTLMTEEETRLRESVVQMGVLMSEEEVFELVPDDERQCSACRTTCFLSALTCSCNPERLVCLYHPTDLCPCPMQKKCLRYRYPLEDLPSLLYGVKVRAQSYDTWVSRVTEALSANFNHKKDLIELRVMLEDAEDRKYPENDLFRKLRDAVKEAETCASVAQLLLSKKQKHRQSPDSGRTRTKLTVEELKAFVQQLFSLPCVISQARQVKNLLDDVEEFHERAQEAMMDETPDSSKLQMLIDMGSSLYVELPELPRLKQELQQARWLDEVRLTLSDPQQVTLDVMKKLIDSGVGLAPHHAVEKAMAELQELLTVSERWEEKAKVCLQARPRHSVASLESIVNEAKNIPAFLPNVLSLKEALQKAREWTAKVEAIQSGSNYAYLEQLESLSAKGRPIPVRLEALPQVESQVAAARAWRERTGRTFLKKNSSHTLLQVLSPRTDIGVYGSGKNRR
Protocol: (§1) This assay determines the ability of a test compound to inhibit Jarid1A, Jarid1B, and JMJD2C demethylase activity.
The enzymatic assay of Jarid1A activity is based upon Time Resolved-Fluorescence Resonance Energy Transfer (TR-FRET) detection. […] The assay reaction was initiated by the following: 2 μl of the mixture of 900 nM H3K4me3-biotin labeled peptide and 6 μM alpha-ketoglutaric acid with 2 μl of 11-point serial diluted inhibitor in 3% DMSO was added to each well of plate, followed by the addition of 2 μl of 3 nM Jarid1A to initiate the reaction. The reaction mixture was incubated at room temperature for 30 minutes, and terminated by the addition of 6 μl of 5 mM EDTA in LANCE detection buffer containing 50 nM Phycolink Streptavidin-allophycocyanin and 2 nM Europium-anti-H3K4me1-2 antibody.

[2] = molecular target: T2, JMJD2C (Homo sapiens, UniProt Q9H3R0); test: JMJD2C in vitro enzyme inhibition assay (TR-FRET); type: biochemical; settings: 0.3 nM JMJD2C, 300 nM H3K9me3-biotin peptide, 2 μM alpha-ketoglutaric acid
T2 sequence (Q9H3R0 2-372): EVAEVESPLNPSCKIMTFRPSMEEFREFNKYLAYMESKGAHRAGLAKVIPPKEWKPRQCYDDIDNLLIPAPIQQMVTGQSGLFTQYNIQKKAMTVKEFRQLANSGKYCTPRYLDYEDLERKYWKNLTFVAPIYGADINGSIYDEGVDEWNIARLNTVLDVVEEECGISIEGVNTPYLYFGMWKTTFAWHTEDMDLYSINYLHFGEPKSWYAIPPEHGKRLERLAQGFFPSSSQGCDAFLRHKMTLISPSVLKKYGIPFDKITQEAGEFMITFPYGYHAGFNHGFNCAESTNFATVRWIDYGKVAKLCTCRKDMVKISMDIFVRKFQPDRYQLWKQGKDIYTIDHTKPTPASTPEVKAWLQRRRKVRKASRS
Protocol: as §1
Reaction product was determined quantitatively by TR-FRET after the addition of detection reagent Phycolink Streptavidin-allophycocyanin (Prozyme) and Europium-anti-di-methylated histone H3 lysine 9 (H3K9me2) antibody (PerkinElmer) in the presence of 5 mM EDTA in LANCE detection buffer (PerkinElmer) at a final concentration of 50 nM and 1 nM, respectively.
The assay reaction was initiated by the following: 2 μl of the mixture of 900 nM H3K9me3-biotin labeled peptide and 6 μM alpha-ketoglutaric acid with 2 μl of 11-point serial diluted inhibitor in 3% DMSO were added to each well of the plate, followed by the addition of 2 μl of 0.9 nM JMJD2C to initiate the reaction. The reaction mixture was incubated at room temperature for 30 minutes, and terminated by the addition of 6 μl of 5 mM EDTA in LANCE detection buffer containing 100 nM Phycolink Streptavidin-allophycocyanin and 2 nM Europium-anti-H3K9me2 antibody.

[3] = molecular target: T3, Jarid1B (Homo sapiens, UniProt Q9UGL1); test: Jarid1B in vitro enzyme inhibition assay (TR-FRET); type: biochemical; settings: 0.8 nM Jarid1B, 300 nM H3K4me3-biotin peptide, 2 μM alpha-ketoglutaric acid
T3 sequence (Q9UGL1 2-751): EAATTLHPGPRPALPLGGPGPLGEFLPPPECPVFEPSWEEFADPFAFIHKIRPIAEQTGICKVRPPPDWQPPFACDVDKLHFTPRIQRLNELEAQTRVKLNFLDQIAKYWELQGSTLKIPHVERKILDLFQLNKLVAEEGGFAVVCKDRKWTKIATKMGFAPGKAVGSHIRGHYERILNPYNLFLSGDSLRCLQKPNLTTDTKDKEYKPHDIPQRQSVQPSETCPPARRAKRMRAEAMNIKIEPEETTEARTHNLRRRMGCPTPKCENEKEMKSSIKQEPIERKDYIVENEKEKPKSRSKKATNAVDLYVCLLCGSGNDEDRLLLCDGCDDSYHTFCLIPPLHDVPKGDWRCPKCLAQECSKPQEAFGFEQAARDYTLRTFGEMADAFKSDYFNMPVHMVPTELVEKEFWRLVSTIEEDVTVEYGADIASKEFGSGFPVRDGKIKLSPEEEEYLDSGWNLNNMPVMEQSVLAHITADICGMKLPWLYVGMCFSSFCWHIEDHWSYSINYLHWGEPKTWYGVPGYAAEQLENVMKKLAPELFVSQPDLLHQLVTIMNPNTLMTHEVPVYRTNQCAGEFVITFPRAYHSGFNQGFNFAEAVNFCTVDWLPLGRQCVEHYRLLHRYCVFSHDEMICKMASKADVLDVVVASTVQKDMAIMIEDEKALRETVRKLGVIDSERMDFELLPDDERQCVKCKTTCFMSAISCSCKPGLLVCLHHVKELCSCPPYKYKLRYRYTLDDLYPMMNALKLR
Protocol: as §1
The reaction mixture was incubated at room temperature for 30 minutes, and terminated by the addition of 6 μl of 5 mM EDTA in LANCE detection buffer containing 50 nM Phycolink Streptavidin-allophycocyanin and 2 nM Europium-anti-H3K4me1-2 antibody.

[4] = system: KDM5A/B; test: In vitro cell-based assay: tri-methyl H3K4 immuno-blotting in ZR-75-1 breast cancer cells; settings: 72 hours, tri-methyl H3K4, relative IC50, read-out: Cellular IC50
Protocol: This quantitative immuno-blotting assay measures the amount tri-methylated histone H3 at amino acid Lysine number 4, a specific substrate […] of the direct enzymatic activity of the histone demethylases KDM5A and KDM5B from extracts of the ZR-75-1 breast cancer cell line.
This assay is a fluorometric immunoassay for the quantification of tri-methyl H3K4 extracted from cells treated with test compound and is used as a measure of the cellular inhibition of KDM5A/B.
Extracts were prepared containing all of the cellular histone material using detergent based lysis and sonication methods. These lysates were subsequently normalized for total protein content using a colorimetric bicinchonic acid assay (MicroBCA Pierce/Thermo Scientific). Normalized cell extracts were then subjected to typical immuno-blotting procedures using NuPage reagents (Life Technologies). […] The amount of tri-methylated lysine 4 of histone H3 was detected using an antibody specific to the tri-methylated state (Cell Signaling Technologies) and quantified on an infrared imager using a densitometry software package (Odyssey CLx, Image Studio, Li-Cor). This background subtracted densitometry value was reported as a ration of the GAPDH amount for that sample and then calculated as a percent of the DMSO treated sample. […]

[5] = 1 nM Jarid1A, 300 nM H3K4me3-biotin peptide, 2 μM alpha-ketoglutaric acid

| SMILES | IC50 [1, 5] [nM] | IC50 [2] [nM] | IC50 [3] [nM] | IC50 [1] [nM] | IC50 [4] [nM] |
| --- | --- | --- | --- | --- | --- |
| Cn1nc2ccccc2c1Nc1cnccc1C(=O)O [Example 2, 3-[(2-methyl-2H-indazol-3-yl)amino]pyridine-4-carboxylic acid] | 1000 to 10000 | 100 to 1000 | 1000 to 10000 | – | – |
| CN(C)CCCCCn1nc(Nc2cnccc2C(=O)O)c2cc(F)ccc21 [Example 22] | – | 100 to 1000 | < 100 | < 100 | – |
| O=C(O)c1ccncc1Nc1nn(Cc2ccccc2)c2ccc(F)cc12 [Example 24, 3-[(1-benzyl-5-fluoro-1H-indazol-3-yl)amino]pyridine-4-carboxylic acid] | < 100 | 100 to 1000 | < 100 | – | > 10000 |
| CNCCCCCn1nc(Nc2cnccc2C(=O)O)c2cc(F)ccc21 [Example 46, 3-({5-fluoro-1-[5-(methylamino)pentyl]-1H-indazol-3-yl}amino)pyridine-4-carboxylic acid, trifluoroacetic acid salt] | < 100 | < 100 | < 100 | – | – |
| CN(C)CC#CCn1nc(Nc2cnccc2C(=O)O)c2cc(F)ccc21 [Example 49, 3-({1-[4-(dimethylamino)but-2-yn-1-yl]-5-fluoro-1H-indazol-3-yl}amino)pyridine-4-carboxylic acid, trifluoroacetic acid salt] | < 100 | < 100 | < 100 | – | – |
| O=C(O)c1ccncc1Nc1nn(C2CCC(F)(F)CC2)c2ccc(F)cc12 [Example 64, 3-{[1-(4,4-difluorocyclohexyl)-5-fluoro-1H-indazol-3-yl]amino}pyridine-4-carboxylic acid] | 1000 to 10000 | 1000 to 10000 | 1000 to 10000 | – | – |
